Results published in US20230085307A1, “PYRIDAZINONE COMPOUND AND HERBICIDE” (NISSAN CHEMICAL CORPORATION, priority 2019, published 2023).

Experiments:
late watergrass = test: Test Example 1: herbicidal activity, application before weed generation under submerged conditions (Table 16, symbol A); assay type: in vivo, late watergrass (Echinochloa oryzicola); settings: amount of applied herbicide 320 g/ha
Method in brief: (§1)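 Submerged Wagner pots (alluvial soil, 4 cm water) sown with weed seeds and planted with 2.5-leaf rice seedlings; emulsifiable concentrate diluted in water applied to water surface on sowing day. Held in greenhouse at 25-30 °C; injury scored 0-5 by herbicidal rate after three weeks.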

Japanese bulrush = test: Test Example 1: herbicidal activity, application before weed generation under submerged conditions (Table 16, symbol B); assay type: in vivo, Japanese bulrush (Schoenoplectus juncoides); settings: amount of applied herbicide 320 g/ha
Method in brief: as §1

barnyard grass [1] = test: Test Example 3: herbicidal effect by foliage application, Wagner pot (Table 18, symbol H); assay type: in vivo, barnyard grass (Echinochloa crus-galli); settings: 320 g/ha
Method in brief: (§2)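 Plants were sown in alluvial soil held under 0.1–0.5 cm standing water and grown 14 days in a greenhouse at 25–30 °C. An emulsifiable formulation, water-diluted to the set dose, was then sprayed onto the foliage, and effects were scored three weeks later using previously defined criteria.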

rice flat sedge = test: Test Example 3: herbicidal effect by foliage application, Wagner pot (Table 18, symbol E); assay type: in vivo, rice flat sedge (Cyperus iria); settings: 320 g/ha
Method in brief: as §2

southern crabgrass [2] = test: Test Example 4: herbicidal effect by soil treatment (Table 19, symbol F); assay type: in vivo, southern crabgrass (Digitaria ciliaris); settings: amount of applied herbicide 320 g/ha
Method in brief: (§3)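 Three weeks of greenhouse growth at 25° C. to 30° C. followed a uniform surface spray of water-diluted emulsion at a predetermined herbicide amount. Seeds had been sown beforehand under about 1.5 cm of sterilized diluvial soil. Grading followed criteria set out in an earlier test.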

green foxtail [3] = test: Test Example 4: herbicidal effect by soil treatment (Table 19, symbol G); assay type: in vivo, green foxtail (Setaria viridis); settings: amount of applied herbicide 320 g/ha
Method in brief: as §3

Italian ryegrass = test: Test Example 4: herbicidal effect by soil treatment (Table 19, symbol K); assay type: in vivo, Italian ryegrass (Lolium multiflorum); settings: amount of applied herbicide 320 g/ha
Method in brief: as §3

windgrass [4] = test: Test Example 4: herbicidal effect by soil treatment (Table 19, symbol L); assay type: in vivo, windgrass (Apera spica-venti); settings: amount of applied herbicide 320 g/ha
Method in brief: as §3

velvetleaf [5] = test: Test Example 4: herbicidal effect by soil treatment (Table 19, symbol M); assay type: in vivo, velvetleaf (Abutilon theophrasti); settings: amount of applied herbicide 320 g/ha
Method in brief: as §3

persian speedwell = test: Test Example 4: herbicidal effect by soil treatment (Table 19, symbol R); assay type: in vivo, Persian speedwell (Veronica persica); settings: amount of applied herbicide 320 g/ha
Method in brief: as §3

southern crabgrass [6] = test: Test Example 5: herbicidal effect by foliage application, plastic box (Table 20, symbol F); assay type: in vivo, southern crabgrass (Digitaria ciliaris); settings: foliage application, 320 g/ha, three weeks after application
Method in brief: (§4)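 Plants sown in sterilized diluvial soil and grown 14 days in a greenhouse at 25° C to 30° C, then sprayed on the foliage with the compound's emulsion diluted in water to a predetermined herbicide amount. Injury to weeds and crops scored three weeks after application on a visual rating scale.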

green foxtail [7] = test: Test Example 5: herbicidal effect by foliage application, plastic box (Table 20, symbol G); assay type: in vivo, green foxtail (Setaria viridis); settings: foliage application, 320 g/ha, three weeks after application
Method in brief: as §4

barnyard grass [8] = test: Test Example 5: herbicidal effect by foliage application, plastic box (Table 20, symbol H); assay type: in vivo, barnyard grass (Echinochloa crus-galli); settings: foliage application, 320 g/ha, three weeks after application
Method in brief: as §4

wild oat = test: Test Example 5: herbicidal effect by foliage application, plastic box (Table 20, symbol I); assay type: in vivo, wild oat (Avena fatua); settings: foliage application, 320 g/ha, three weeks after application
Method in brief: as §4

blackgrass = test: Test Example 5: herbicidal effect by foliage application, plastic box (Table 20, symbol J); assay type: in vivo, blackgrass (Alopecurus myosuroides); settings: foliage application, 320 g/ha, three weeks after application
Method in brief: as §4

windgrass [9] = test: Test Example 5: herbicidal effect by foliage application, plastic box (Table 20, symbol L); assay type: in vivo, windgrass (Apera spica-venti); settings: foliage application, 320 g/ha, three weeks after application
Method in brief: as §4

velvetleaf [10] = test: Test Example 5: herbicidal effect by foliage application, plastic box (Table 20, symbol M); assay type: in vivo, velvetleaf (Abutilon theophrasti); settings: foliage application, 320 g/ha, three weeks after application
Method in brief: as §4

redroot pigweed = test: Test Example 5: herbicidal effect by foliage application, plastic box (Table 20, symbol N); assay type: in vivo, redroot pigweed (Amaranthus retroflexus); settings: foliage application, 320 g/ha, three weeks after application
Method in brief: as §4

For COc1ccccc1-c1sc2cc(OC3CCCC3)ccc2c1-c1c(O)c(C)nn(C)c1=O [3-109], the “Herbicidal effect, A: late watergrass” value (late watergrass) was 5 (Herbicidal rate of 90% or more (almost completely withered)), the “Herbicidal effect, B: Japanese bulrush” value (Japanese bulrush) was 5 (Herbicidal rate of 90% or more (almost completely withered)) and the “herbicidal effect on barnyard grass (H)” value (barnyard grass [1]) was 3 (Herbicidal rate of 40% or more and less than 70%). For the same molecule, the “herbicidal effect on rice flat sedge (E)” value (rice flat sedge) was 4 (Herbicidal rate of 70% or more and less than 90%), the “F: southern crabgrass, herbicidal effect grade” value (from here on “F: southern crabgrass”) (southern crabgrass [2]) was 2 (Herbicidal rate of 20% or more and less than 40%) and the “G: green foxtail, herbicidal effect grade” value (from here on “G: green foxtail”) (green foxtail [3]) was 4 (Herbicidal rate of 70% or more and less than 90%). The “K: Italian ryegrass, herbicidal effect grade” value (Italian ryegrass) was 4 (Herbicidal rate of 70% or more and less than 90%), the “L: windgrass, herbicidal effect grade” value (windgrass [4]) was 0 (Herbicidal rate of 5% or less (almost no effect)) and the “M: velvetleaf, herbicidal effect grade” value (velvetleaf [5]) was 5 (Herbicidal rate of 90% or more (almost completely withered)). The “R: persian speedwell, herbicidal effect grade” value (persian speedwell) was 4 (Herbicidal rate of 70% or more and less than 90%), the “F: southern crabgrass” value (southern crabgrass [6]) was 3 (Herbicidal rate of 40% or more and less than 70%) and the “G: green foxtail” value (green foxtail [7]) was 5 (Herbicidal rate of 90% or more (almost completely withered)). The “H: barnyard grass, herbicidal effect grade” value (barnyard grass [8]) was 4 (Herbicidal rate of 70% or more and less than 90%), the “I: wild oat, herbicidal effect grade” value (wild oat) was 0 (Herbicidal rate of 5% or less (almost no effect)) and the “J: blackgrass, herbicidal effect grade” value (blackgrass) was 2 (Herbicidal rate of 20% or more and less than 40%). The “L: windgrass, herbicidal effect grade” value (windgrass [9]) was 4 (Herbicidal rate of 70% or more and less than 90%), the “M: velvetleaf, herbicidal effect grade” value (velvetleaf [10]) was 4 (Herbicidal rate of 70% or more and less than 90%) and the “N: redroot pigweed, herbicidal effect grade” value (redroot pigweed) was 5 (Herbicidal rate of 90% or more (almost completely withered)).
COc1ccccc1-c1sc2cc(OC(F)F)ccc2c1-c1c(O)c(C)nn(C)c1=O [3-113] was tested, and the “Herbicidal effect, A: late watergrass” value (late watergrass) was 4 (Herbicidal rate of 70% or more and less than 90%), the “Herbicidal effect, B: Japanese bulrush” value (Japanese bulrush) was 3 (Herbicidal rate of 40% or more and less than 70%) and the “herbicidal effect on barnyard grass (H)” value (barnyard grass [1]) was 5 (Herbicidal rate of 90% or more (almost completely withered)). For the same molecule, the “herbicidal effect on rice flat sedge (E)” value (rice flat sedge) was 5 (Herbicidal rate of 90% or more (almost completely withered)), the “F: southern crabgrass” value (southern crabgrass [2]) was 4 (Herbicidal rate of 70% or more and less than 90%) and the “G: green foxtail” value (green foxtail [3]) was 5 (Herbicidal rate of 90% or more (almost completely withered)). For the same molecule, the “K: Italian ryegrass, herbicidal effect grade” value (Italian ryegrass) was 5 (Herbicidal rate of 90% or more (almost completely withered)), the “L: windgrass, herbicidal effect grade” value (windgrass [4]) was 5 (Herbicidal rate of 90% or more (almost completely withered)) and the “M: velvetleaf, herbicidal effect grade” value (velvetleaf [5]) was 4 (Herbicidal rate of 70% or more and less than 90%). The “R: persian speedwell, herbicidal effect grade” value (persian speedwell) was 5 (Herbicidal rate of 90% or more (almost completely withered)), the “F: southern crabgrass” value (southern crabgrass [6]) was 1 (Herbicidal rate of 5% or more and less than 20%) and the “G: green foxtail” value (green foxtail [7]) was 5 (Herbicidal rate of 90% or more (almost completely withered)). The “H: barnyard grass, herbicidal effect grade” value (barnyard grass [8]) was 5 (Herbicidal rate of 90% or more (almost completely withered)), the “I: wild oat, herbicidal effect grade” value (wild oat) was 4 (Herbicidal rate of 70% or more and less than 90%) and the “J: blackgrass, herbicidal effect grade” value (blackgrass) was 5 (Herbicidal rate of 90% or more (almost completely withered)). For the same molecule, the “L: windgrass, herbicidal effect grade” value (windgrass [9]) was 5 (Herbicidal rate of 90% or more (almost completely withered)), the “M: velvetleaf, herbicidal effect grade” value (velvetleaf [10]) was 5 (Herbicidal rate of 90% or more (almost completely withered)) and the “N: redroot pigweed, herbicidal effect grade” value (redroot pigweed) was 5 (Herbicidal rate of 90% or more (almost completely withered)).
